Experimental data from article PMC13147323, “EGFR-Targeted and MMP-Activated Membranolytic Peptides Kill Cancer Cells Specifically In Vitro and Reduce Tumor Growth In Vivo” (Molecular Pharmaceutics, 2026).
pIC50: −log10 of the molar value. “Also recorded” adds a separate entry of the source. Counter-ions that a name gives are not always drawn. Residues, ends and D or L forms follow the SMILES beside them.

Experiments:
MDA-MB-468 cells [1] = assay type: cell-based, human; details: 24 h
Description: (§1) MDA-MB-468, MDA-MB-231, BT-474, AU-565, HB2, and MCF-10A cells were procured from American Type Culture Collection (ATCC) and validated for lack of mycoplasma contamination (MycoAlert; Lonza, Basel, Switzerland) and identity (short tandem repeat profiling; Source Bioscience, Nottingham, UK). Cells (except MCF-10A) were cultured in Dulbecco’s modified Eagle medium (DMEM) supplemented with 10% (v/v) fetal calf serum (FCS) and 100 units/mL penicillin–streptomycin (Thermo Scientific; Waltham, MA, USA). MCF-10A was cultured in DMEM supplemented with 5% horse serum, 0.1 μg/mL cholera toxin, 0.5 μg/mL hydrocortisone, 0.02 μg/mL epidermal growth factor, and 100 units/mL penicillin–streptomycin (Thermo Scientific, Waltham, MA, USA). Cells were grown at 37 °C in a humidified incubator with 5% CO2. Cells were maintained and experiments were performed under conditions ensuring cell densities that supported exponential growth.
(§2) Cells were seeded in 96-well plates at 1 × 10^4 cells/well in complete growth media and incubated for 18 h. Cells were then treated with peptides (0–250 μM) for up to 24 h. Cells were then incubated with 0.5 mg/mL MTT dissolved in PBS for 3 h. Formazan crystals were dissolved using […] of isopropanol and absorbance was measured at 570 nm on a microplate spectrophotometer (Biotech Instruments, USA). For spheroids assays, MDA-MB-468 or HB2 cells (1000 cells/well) were seeded in 250 μL of DMEM supplemented with 10% FCS and 2.5% Matrigel (Corning, New York, USA) in low-adherent, round-bottom 96-well plates (Corning, New York, USA). The plates were centrifuged at 360g for 10 min and subsequently incubated for 48 h to allow spheroid formation. MDA-MB-468 or HB2 spheroids were then treated with peptides at the IC50 doses determined for MDA-MB-468 cells for 24 h. Cellular viability within spheroids was assessed by staining with Hoechst 33342 (5 μg/mL) for 30 min, followed by propidium iodide (PI) (1.5 μg/mL) for 10 min. Red fluorescence indicated nonviable cells stained with PI, whereas blue fluorescence represented both viable and nonviable cells stained with Hoechst 33342. The survival of spheroids was determined by calculating ratios of blue/red fluorescence using ImageJ software.
(§3) A panel of human breast epithelial cell lines was established, including two lines from a nontransformed origin (MCF-10A; HB2) and four cancer lines (BT-474; AU-565; MDA-MB-231; MDA-MB-468). Cells were treated with different doses of MP1 or the modified peptides. Survival was assessed relative to untreated using MTT assays (Figures and S2) and IC50 doses were determined for each peptide in each cell line.

HB2 cells = assay type: cell-based, human; details: 24 h
Description: as §1, §2, §3

BT-474 cells = assay type: cell-based, human; details: 24 h
Description: as §1, §2, §3

MCF-10A cells = assay type: cell-based, human; details: 24 h
Description: as §1, §2, §3

MDA-MB-231 cells = assay type: cell-based, human; details: 24 h
Description: as §1, §2, §3

AU-565 cells = assay type: cell-based, human; details: 24 h
Description: as §1, §2, §3

red blood cells = test: Ex vivo hemolysis assay; assay type: cell-based; details: mouse RBCs 1:50 in PBS, 1 h, 37 °C, absorbance 540 nm
Description: Blood was collected from five 10-week-old male C57BL/6 mice via cardiac puncture following cervical dislocation, using pediatric blood collection tubes containing K3 EDTA (Greiner; Slušovice, Czechia). Blood was centrifuged (500g; 5 min; 4 °C) and plasma was removed. Red blood cells (RBCs) were resuspended to their original volume using 150 mM NaCl. RBCs were repeatedly washed and diluted to 1:50 in PBS. For a positive control, 1% (v/v) Triton X-100 was used (100% lysis), while cells incubated in PBS served as a negative control (0% lysis). 200 μL of RBCs in triplicate was treated with peptides and incubated on an orbital shaker (100 rpm; 1 h; 37 °C). Samples were centrifuged (500g; 5 min) and supernatants, containing lysed RBCs, were collected. Hemolysis was quantified by measuring absorbance at 540 nm.
Our next aim was to assess whether our various peptides had potential as anticancer therapeutics using an in vivo model. To our knowledge, MP1 or MP1-derived peptides have not previously been used experimentally in vivo, therefore we first performed an in vitro hemolysis assay to aid selection of peptides that could be suitable for intravenous delivery. Red blood cells were isolated from mouse blood and treated with three different doses of MP1 wildtype or our targeted peptides (EGFR and EGFR-MMP versions of both MP1 and D2K) and hemolysis was measured (Figure A).

MDA-MB-468 cells [2] = test: MTT survival with or without MMP-2 inhibitor, MDA-MB-468; assay type: cell-based, human; details: MDA-MB-468, MTT, 24 h; 20 μM EGFR-MP1, 30 μM EGFR-MMP-MP1 or 2 μM chlorhexidine dihydrochloride alone
Description: Cells were seeded in 6-well plates at 3 × 10^5 in complete medium and allowed to grow for 48 h. 500 μL of cell media from each cell line was collected and centrifuged at 5000 rpm for 15 min at 4 °C. Supernatants were collected and 50 μL of each was added in 3 replicate wells of a monoclonal mouse antihuman MMP-2 antibody precoated 96-well ELISA plate (Human Total MMP-2 kit; BioLegend, USA). It was then mixed with the respective assay buffers as per the kit instruction. The plate was then sealed and incubated at room temperature (2 h). The supernatant sample was then discarded and the wells were washed with assay buffer several times. Next, 100 μL of Human Total MMP-2 Detection Antibody solution was added into the wells and incubated (1 h). 100 μL of Avidin-HRP solution was then added for 1 h, and finally, after washing, 100 μL of substrate solution was added. Absorbance was measured at 450 nm (Biotech Instruments, USA). The final MMP-2 concentration was calculated against a standard curve. […]
We were also interested to test formally whether the efficacy of EGFR-MMP-MP1 was dependent on MMP-2 activity. Therefore, we treated MDA-MB-468 cells with EGFR-MMP-MP1 or with EGFR-MP1, in the presence or absence of the MMP-2 inhibitor chlorhexidine dihydrochloride, and assessed cell survival relative to untreated (Figure C,D).

Structure (SMILES) | pIC50 (MDA-MB-468 cells [1]) | pIC50 (HB2 cells) | pIC50 (BT-474 cells) | pIC50 (MCF-10A cells) | pIC50 (MDA-MB-231 cells) | pIC50 (AU-565 cells) | hemolysis (in words) (red blood cells; three doses) | cell survival relative to untreated, single agent (MDA-MB-468 cells [2]) | hemolysis (red blood cells; 50 μM peptide, 1% Triton X-100 = 100%) [%]
CC[C@H](C)[C@H](N)C(=O)N[C@@H](CCCCN)C(=O)N[C@@H](Cc1c[nH]c2ccccc12)C(=O)N[C@@H](CCCCN)C(=O)N[C@@H](CCCCN)C(=O)N[C@@H](CC(C)C)C(=O)N[C@@H](CC(C)C)C(=O)N[C@@H](CC(=O)O)C(=O)N[C@@H](C)C(=O)N[C@@H](C)C(=O)N[C@@H](CCCCN)C(=O)N[C@@H](CCC(N)=O)C(=O)N[C@H](C(=O)N[C@@H](CC(C)C)C(=O)NCC(=O)NCC(=O)N[C@@H](Cc1ccc(O)cc1)C(=O)N[C@@H](Cc1c[nH]cn1)C(=O)N[C@@H](Cc1c[nH]c2ccccc12)C(=O)N[C@@H](Cc1ccc(O)cc1)C(=O)NCC(=O)N[C@@H](Cc1ccc(O)cc1)C(=O)N[C@H](C(=O)N1CCC[C@H]1C(=O)N[C@@H](CCC(=O)O)C(=O)N[C@@H](CC(N)=O)C(=O)N[C@H](C(=O)N[C@H](C(=O)O)[C@@H](C)CC)C(C)C)[C@@H](C)O)[C@@H](C)CC [EGFR-D2K] (H-IKWKKLLDAAKQILGGYHWYGYTPENVI-OH) | 4.56 | 4.30 |  |  |  |  |  |  | 
CC[C@H](C)[C@H](N)C(=O)N[C@@H](CC(=O)O)C(=O)N[C@@H](Cc1c[nH]c2ccccc12)C(=O)N[C@@H](CCCCN)C(=O)N[C@@H](CCCCN)C(=O)N[C@@H](CC(C)C)C(=O)N[C@@H](CC(C)C)C(=O)N[C@@H](CC(=O)O)C(=O)N[C@@H](C)C(=O)N[C@@H](C)C(=O)N[C@@H](CCCCN)C(=O)N[C@@H](CCC(N)=O)C(=O)N[C@H](C(=O)N[C@@H](CC(C)C)C(=O)O)[C@@H](C)CC [MP1, reference compound] (H-IDWKKLLDAAKQIL-OH) | 4.63 | 4.50 | 4.30 | 3.95 | 4.46 | 4.73 | unacceptably high levels of hemolysis at all doses; also recorded: unacceptably high hemolytic activity |  | 
[H]/N=C(\N/C(=N/[H])NCCCCCCNC(=N)NC(=N)Nc1ccc(Cl)cc1)Nc1ccc(Cl)cc1 [chlorhexidine dihydrochloride] |  |  |  |  |  |  |  | small and nonsignificant decrease | 
CC[C@H](C)[C@H](N)C(=O)N[C@@H](CCCCN)C(=O)N[C@@H](Cc1c[nH]c2ccccc12)C(=O)N[C@@H](CCCCN)C(=O)N[C@@H](CCCCN)C(=O)N[C@@H](CC(C)C)C(=O)N[C@@H](CC(C)C)C(=O)N[C@@H](CC(=O)O)C(=O)N[C@@H](C)C(=O)N[C@@H](C)C(=O)N[C@@H](CCCCN)C(=O)N[C@@H](CCC(N)=O)C(=O)N[C@H](C(=O)N[C@@H](CC(C)C)C(=O)NCC(=O)N1CCC[C@H]1C(=O)N[C@@H](CC(C)C)C(=O)NCC(=O)N[C@H](C(=O)N[C@@H](C)C(=O)NCC(=O)N[C@@H](CCC(N)=O)C(=O)N[C@@H](Cc1ccc(O)cc1)C(=O)N[C@@H](Cc1c[nH]cn1)C(=O)N[C@@H](Cc1c[nH]c2ccccc12)C(=O)N[C@@H](Cc1ccc(O)cc1)C(=O)NCC(=O)N[C@@H](Cc1ccc(O)cc1)C(=O)N[C@H](C(=O)N1CCC[C@H]1C(=O)N[C@@H](CCC(=O)O)C(=O)N[C@@H](CC(N)=O)C(=O)N[C@H](C(=O)N[C@H](C(=O)O)[C@@H](C)CC)C(C)C)[C@@H](C)O)[C@@H](C)CC)[C@@H](C)CC [EGFR-MMP-D2K] (H-IKWKKLLDAAKQILGPLGIAGQYHWYGYTPENVI-OH) | 4.49 | 4.10 |  |  |  |  |  |  | 5.9
CC[C@H](C)[C@H](N)C(=O)N[C@@H](CC(=O)O)C(=O)N[C@@H](Cc1c[nH]c2ccccc12)C(=O)N[C@@H](CCCCN)C(=O)N[C@@H](CCCCN)C(=O)N[C@@H](CC(C)C)C(=O)N[C@@H](CC(C)C)C(=O)N[C@@H](CC(=O)O)C(=O)N[C@@H](C)C(=O)N[C@@H](C)C(=O)N[C@@H](CCCCN)C(=O)N[C@@H](CCC(N)=O)C(=O)N[C@H](C(=O)N[C@@H](CC(C)C)C(=O)NCC(=O)NCC(=O)N[C@@H](Cc1ccc(O)cc1)C(=O)N[C@@H](Cc1c[nH]cn1)C(=O)N[C@@H](Cc1c[nH]c2ccccc12)C(=O)N[C@@H](Cc1ccc(O)cc1)C(=O)NCC(=O)N[C@@H](Cc1ccc(O)cc1)C(=O)N[C@H](C(=O)N1CCC[C@H]1C(=O)N[C@@H](CCC(=O)O)C(=O)N[C@@H](CC(N)=O)C(=O)N[C@H](C(=O)N[C@H](C(=O)O)[C@@H](C)CC)C(C)C)[C@@H](C)O)[C@@H](C)CC [EGFR-MP1] (H-IDWKKLLDAAKQILGGYHWYGYTPENVI-OH) | 4.40 | 4.15 | 4.01 | 4.03 | 4.41 | 4.04 |  |  | 
